Earlier results on four molecules are cited in patent publication US20100022659A1, “Methods and Compositions for the Treatment of CNS-Related Conditions” (priority 2004, published 2010).

The conditions of the data set: humans, cited from earlier work.
Where [1] appears, read: MAO inhibitors/GAPDHais, Table 2.

Like-named read-outs stand apart in the source and are kept apart here.

`CC12CC3CC(C)(C1)CC(N)(C3)C2` [Memantine, 1-amino-3,5-dimethyladamantane]: the “Human PK” value (NMDAr antagonists, Table 1) was 56 h.

For `C#CCN[C@@H]1CCc2ccccc21` [N-propargyl-1(R)-aminoindan/Rasageline, N-propargyl-1(R)-aminoindan], under setting [1], the “Human PK” value was 1.8 h.

With Desmethyldeprenyl, under setting [1], the “Human PK” value was 3.8 to 9.5 h.

On to `CC(N)C12CC3CC(CC(C3)C1)C2` (stereo not shown) [Rimantadine, 1-(1-aminoethyl)adamantane], for which the “Human PK” value (NMDAr antagonists, Table 1) is 25 h.
